According to patent publication US20080188449A1, “Treatment of Conditions Caused By Calcium Abnormalities” (priority 2004, published 2008):

Columns and labels:
HeLa cells [1] = experiment: [^3H]-triptolide competition binding in HeLa cells; details: for competition for [^3H]-triptolide binding: 1 μM competitor
Procedure: To gain insight into triptolide's mechanism of action Applicants sought to determine its specific binding activity utilizing a system employing [^3H]-triptolide. In addition to competition with 1 μM or 10 μM unlabeled triptolide, Applicants also measured the binding affinities of triptolide analogs (FIG. 1A). These analogs have been previously described and differ structurally from triptolide in the hydrolysis of the 12,13 epoxide (2), and formation of the ketone at the C-14 hydroxyl (3) (FIG. 1A). […] The effective interaction of these analogs with a presumed triptolide binding entity led us to their use in subsequent experiments addressing the mode of triptolide's biological functions.
(§1) To address first the nature of triptolide binding within the cell, Applicants determined this interaction was reversible as [^3H]-triptolide labeling was out competed by subsequent addition of excess unlabeled triptolide (FIG. 2A). […] Although 25% of the total cellular counts (i.e., representing bound triptolide) were found in the cytosolic fraction, it is uncertain whether this is specific binding or simply that free triptolide had dissociated from its binding protein due to experimental manipulation during fractionation. Since the data thus far had only shown binding within whole cells, Applicants next determined if this triptolide binding protein could be further characterized and/or enriched by its association with chromatographic reagents. HeLa cells were once again labeled with [^3H]-triptolide and total cell lysates were then passed over the anion exchange resin DEAE. Batch elutions with increasing NaCl concentrations were used to disassociate interactions of variable charge. […] Importantly, Applicants also observed that [^3H]-triptolide would only bind to intact cells in culture but would not bind to any component of a total cellular lysate as assessed by interaction with the DEAE resin. Negative results for a triptolide binding interaction were also observed with DNA-cellulose and the cation exchange resin SPFF (sulphopropyl).
Labeling studies were performed by the addition of approximately 30 nM [^3H]-triptolide directly into the culture media for one hour at 37° C. For cold competition studies, 1 μM triptolide was incubated with the cells for one hour before or after the addition of [^3H]-triptolide. Triptolide analog studies followed a similar protocol where concentrations used for competition were either 1 or 10 μM added before [^3H]-triptolide. Medium was removed and cells were washed 3× in cold PBS. Total cell lysates were prepared (150 mM NaCl, 50 mM Tris-HCl pH 7.4, 1 mM EDTA, 1% Triton X-100, and Complete protease inhibitors (Roche)) and protein was quantitated before measuring the [^3H]-triptolide binding activity via liquid scintillation.

HeLa cells [2] = experiment: [^3H]-triptolide saturation (specific) binding assay; details: saturation plot
Procedure: Based upon the data above, Applicants next sought to determine if triptolide binding was saturable and if more than one protein (or binding site) was being targeted. Determination of the [^3H]-triptolide binding affinity (KD) and the binding capacity per cell (Bmax) were calculated using a saturation plot. HeLa cells were cultured to 90% confluency and subsequently treated with 0-100 nM of [^3H]-triptolide for one hour. Non-specific binding was defined using 2 μM cold triptolide as competitor. Bmax was calculated to be 99±19 fmol triptolide bound/10^5 cells of triptolide binding sites.
Saturation binding assays were accomplished in HeLa cells adhered on 6-well plates in DMEM+10% FBS. All samples were at least 90% confluent at time of addition of triptolide. Non-specific binding of [^3H]-triptolide was assessed by the pre-incubation of 2 μM (non-labeled) triptolide for one hour. Following cold competition (or DMSO) 5, 10, 20, 50, or 100 nM of [^3H]-triptolide was added into the cultures for an additional one hour, and then cells were lysed and counted for binding activity.

HeLa cells [3] = experiment: Cellular fractionation of [^3H]-triptolide labeled HeLa cells; assay type: binding
Source text: as §1, with “DEAE.” for “DEAE. Batch elutions with increasing NaCl concentrations were used to disassociate interactions of variable charge.”, “Negative results for a triptolide binding interaction were also observed with DNA-cellulose and the cation exchange resin SPFF (sulphopropyl).” left out
For cellular fractionation studies, cells were allowed to swell on ice and lysed by passage through a syringe in a hypotonic lysis buffer (10 mM Tris-HCl+complete protease inhibitors). […] Gel slices were measured out in equal increments and the molecular weight range of each was calculated. […]

HeLa cells [4] = experiment: [^3H]-triptolide binding with or without extracellular calcium
Source text: To understand further the nature of triptolide's interaction within the cell, Applicants altered cell culture conditions to examine if [^3H]-triptolide binding would be affected. […] Additionally, it has been established that aberrant calcium signaling can result in cell death (Rizzuto, et al., 2003, Oncogene 22, 8619-8627; Orrenius, et al., 2003, Nat Rev Mol Cell Biol 4, 552-565). Due to triptolide's own link with NFκB and NF-AT and its propensity to induce cell death, Applicants examined if triptolide binding could be modulated by free calcium levels. Adherent HeLa cells were cultured in the presence or absence of calcium containing medium for 16 hours before [^3H]-triptolide addition. […] It is also noteworthy that an increase in cell density (not cell number) also increases triptolide binding regardless of calcium levels. Additionally, specific calcium chelation by 10 mM EGTA for one hour in calcium containing medium increased binding by nearly 2 fold.
Labeling studies were performed by the addition of approximately 30 nM [^3H]-triptolide directly into the culture media for one hour at 37° C. […] Total cell lysates were prepared (150 mM NaCl, 50 mM Tris-HCl pH 7.4, 1 mM EDTA, 1% Triton X-100, and Complete protease inhibitors (Roche)) and protein was quantitated before measuring the [^3H]-triptolide binding activity via liquid scintillation.

HeLa cells [5] = experiment: HeLa cell viability by trypan blue dye exclusion; assay type: cell-based
Procedure: Since extracellular calcium concentration can influence triptolide binding Applicants sought to determine if the presence of calcium influences the rate of triptolide-mediated apoptosis. To first establish the growth rate of HeLa in media±calcium, cell counts were performed over a 72 hour time course. Although calcium-free media caused cells to detach more easily, the overall growth rates were similar where cell doubling occurred every 24 hours on average (FIG. 3B). For triptolide experiments, cells were initially equilibrated in medium±calcium for 16 hours before the addition of 100 nM triptolide. Cell death was assessed by trypan blue dye exclusion at 24, 48, and 72 hours post drug treatment. In the presence of calcium-containing medium, triptolide induced at least 50% cell death by 24 hours with this trend continuing through later time points (FIG. 3C).
Applicants' results have implicated reversible binding of triptolide to a potential binding protein or complex that can be regulated by calcium. To understand if triptolide function is further separable between cell death and NFκB inhibition, Applicants examined the effect of concentration on these two endpoints. HeLa cells were cultured in the presence of 0, 10, 25, 50, or 100 nM of triptolide and separately assessed for cell death or the ability to suppress NFκB transactivation promoted by TNF-α. Following 24-48 hours of culture, viable cells were recovered and counted. Following 24 hours, triptolide concentrations from 25-100 nM caused greater than 50% of the cells to undergo cell death as assessed by detachment, clumping and the failure to exclude trypan blue dye. […] This is consistent with previous studies showing that low doses of triptolide cause cell cycle arrest rather than apoptosis (Kiviharju, et al., 2002, Clin Cancer Res 8, 2666-2674).
(§2) Based upon Applicants' studies examining the concentration dependent effect of triptolide on the two measured biological endpoints, cell death and transcriptional repression, Applicants wanted to determine how modulating triptolide's structure may also discriminate between the two pathways. For cell viability assays, HeLa cells were incubated with 0, 0.1, 1, or 10 μM of each analog or triptolide for 24 hours and then counted using trypan blue dye exclusion. […] NFκB transcriptional inhibition was measured using the κB-luciferase assay as previously described following 5 hours of incubation with each analog (0-10 μM) and TNF-α addition.
HeLa cells were incubated in DMEM or SMEM (Gibco) media+10% FBS and maintained at 37° C. in 5% CO2 for all experiments. HeLa cell viability was assessed by trypan blue dye exclusion, as well as by morphological examination (non-viable cells were rounded and detached from culture plate).

NFκB transactivation = experiment: κB-luciferase reporter assay (TNF-α induced); assay type: cell-based; details: 5 hours
Procedure: Having established that triptolide induced cell death is dependent upon free calcium concentration, Applicants next determined if this was also a requirement for the inhibition of NFκB transcription. HeLa cells were transiently transfected with the κB-luciferase reporter construct for 8 hours before being washed and then cultured in the presence or absence of calcium containing medium for 16 hours. Triptolide (100 nM) was pre-incubated with cells for 1 hour before addition of 15 ng/ml of TNF-α for 4 hours.
As an additional experiment, transcriptional activity was also assessed by site-directed calcium buffering. HeLa cells were co-transfected with the κB-luciferase plasmid as well as one of the following constructs: GFP empty vector, NES-PV-GFP, or NLS-PV-GFP and proper GFP localization was confirmed. Cells were grown in the presence of calcium for 24 hours before the addition of 100 nM triptolide and 15 ng/ml TNF-α.
NFκB transactivation was examined using the κb-luciferase reporter construct. HeLa cells were transiently transfected and pre-treated with 0-100 nM triptolide for one hour prior to TNF-α addition. Cells were assessed for NFκB driven luciferase expression after an additional five hours of incubation, at which time TNF-α had induced transcriptional activity by approximately 15-fold in control cells. […] The results thus far support a divergence of triptolide-mediated functions: the pathway regulating growth arrest/death is more sensitive to triptolide and calcium than the mechanism leading to transcriptional repression of NFκB.
as §2
A triple κB promoter-Luciferase reporter construct was a gift of Sankar Ghosh (Yale University). HeLa cells were plated at a density of 2×10^5 in 12 well plates and transfected with 100 ng of the κB-Luciferase plasmid plus Lipofectamine 2000 (Invitrogen) for 24 hours before the addition of 100 nM triptolide for one hour and 15 ng/ml of recombinant (human) TNF-α (Roche) for an additional five hours. The transfection efficiency of HeLa was determined to be 80-90%, and all samples were normalized to protein concentration. Luciferase assays were performed using the Firefly luciferase kit as per manufacturer's protocol (Promega) and results obtained on the Wallac Victor2 1420 Multilabel Counter (Perkin Elmer).

SMILES	nature of binding interaction (HeLa cells [1]; excess unlabeled triptolide added after [^3H]-triptolide)	binding capacity per cell (Bmax) (HeLa cells [2])	total cellular counts found in the cytosolic fraction (HeLa cells [3]; S-100) [%]	cellular fraction bound (HeLa cells [3]; S-100 / P-100 fractionation)	increase of binding (HeLa cells [4]; 10 mM EGTA for one hour in calcium containing medium) [fold]	increase of [^3H]-triptolide binding (HeLa cells [4]; absence of extracellular calcium for 16 hours)	competition for [^3H]-triptolide binding (HeLa cells [1]; HeLa cells)	cell viability (HeLa cells [5]; 0.1 μM, 24 hours)	cell growth (HeLa cells [5]; 0.1 μM, out to 72 hours)	cell death (HeLa cells [5]; 1 μM, 24 hours)	effect on NFκB transcriptional activity (NFκB transactivation; 1 μM)	displacement of [^3H]-triptolide binding (HeLa cells [1]; 1 or 10 μM competitor one hour before [^3H]-triptolide, HeLa cells)	effect on cells (HeLa cells [5]; 25 nM)	profile of cell death (HeLa cells [5]; 0.1-10 μM, 24 hours)	profile of transcriptional repression (NFκB transactivation; 0.1-10 μM)
CC(C)[C@]12O[C@H]1[C@@H]1O[C@]13[C@]1(O[C@H]1C[C@H]1C4=C(CC[C@@]13C)C(=O)OC4)[C@@H]2O [[^3H]-triptolide]	reversible	99±19 fmol triptolide bound/10^5 cells	25	predominantly to the membrane fraction (P-100)	~2	2-4 fold									
CC(C)C1(O)C(O)C2OC23C2(C)CCC4=C(COC4=O)C2CC2OC23C1O (stereo not shown) [analog (2), Triol-Triptolide]							efficiently competes	not different from the untreated control	overall growth suppressive effect	greater than 50%	no effect				
CC(C)[C@]12O[C@H]1[C@@H]1O[C@@]13[C@@]1(C)CCC4=C(COC4=O)[C@@H]1C[C@@H]1O[C@@]13C2=O [analog (3), Triptonide]							higher competitive ability than triptolide itself					near complete	only a growth suppressive effect	mimicked triptolide with no significant difference	mimicked triptolide with no significant difference
